Test results: US5242945A, “Tetronic and thiotetronic acid derivatives as phospholipase A2 inhibitors” (American Home Products Corporation, priority 1991, dated 1993)
Read-outs that look alike come from different tables or passages of the source.

Experiments:
5-lipoxygenase (LTC4) = test: resident murine peritoneal macrophage assay, LTC4; type: cell-based, mouse (Swiss Webster)
Protocol: (§1) The ability of the compounds of the invention to act as inhibitors of the enzymes 5-lipoxygenase and cyclooxygenase is measured in the resident murine peritoneal macrophage assay.
(§2) Resident peritoneal macrophages are collected from female Swiss Webster mice (49 days old, 20-25 gms, Buckshire) by lavaging with 7-8 ml Hanks Balanced Salt Solution (HBSS) without Ca^++ and Mg^++ (GIBCO). The lavage fluid from several mice is pooled and centrifuged at 4° C. for 10 minutes at 400 xg.
(§3) Residual serum and cellular debris are removed from the monolayers by washing 3× with 2 ml HBSS containing Ca^++ and Mg^++. Macrophages are preincubated for 5 minutes with 1 ml serum-free M199 containing 10 μl dimethyl sulfoxide (DMSO) vehicle or test compound prior to cell activation with zymosan ([…]) or arachidonic acid (AA) (2 μM). After 2 hours, the supernatants are removed and either assayed for LTC4 and PGE2 by radioimmunoassay (RIA) directly or stored at -20° C. In all cases, results are expressed as ng metabolite/4×10^6 cells.
(§4) Raw data (dpm) may be stored directly onto an "Autostart" tape using the HP85 in room C-096. The raw data are converted to ng metabolite/4-10^6cells using the standard curve by a "RIANAL" program (HP85) or a "NONLIN" program (HP9816). Results are then expressed as percent inhibition of zymosan induced, leukotriene or prostaglandin synthesis (control) using the equation: [formula]

cyclooxygenase (PGE2) = test: resident murine peritoneal macrophage assay, PGE2; type: cell-based, mouse (Swiss Webster); details: for inhibition at 0.5 µM / inhibition at 1 µM: read-out: PGE2 zymosan % Inhibition
Protocol: as §1
as §2, with “xg. The cell pellet is resuspended in Medium 199 (GIBCO) with HEPES buffer containing 100 μg/ml gentamicin. Two ml of the cell suspension (4×10^6 cells) are then plated on 35 mm culture dishes (Nunc).” for “xg.”
A macrophage monolayer is established after a 1-1.5 hour incubation of the cells at 37° C. in an atmosphere of […] and 5% CO2. The monolayers are washed 2× with 2 ml HBDSS, containing Ca^++ and Mg^++ after which 2 ml Medium 199 supplemented with 10% freshly thawed heat-inactivated fetal bovine serum and 100 μg/ml gentamicin is added for an overnight incubation.
as §3, §4

[1] = target: T1, human synovial fluid PLA2 (Homo sapiens, UniProt P14555); test: in vitro isolated phospholipase A2 assay, human synovial fluid PLA2; type: biochemical; details: at 10 μM; + values given without explanation; read-out: % Inhibition HSF (human synovial fluid)
T1 construct: Purified human synovial fluid; from tissue; host or cells: human synovial fluid
T1 sequence (P14555 21-144): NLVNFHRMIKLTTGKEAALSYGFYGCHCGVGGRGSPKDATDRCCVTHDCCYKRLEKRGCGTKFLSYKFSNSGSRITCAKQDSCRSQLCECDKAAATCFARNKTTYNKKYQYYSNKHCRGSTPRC
Protocol: (§5) The compounds of the invention are tested in an in vitro isolated phospholipase A2 assay to determine the ability of the test compounds to inhibit the release of arachidonic acid from an arachidonic acid-containing substrate by the action of phospholipase A2 enzyme from human and non-human sources.
(§6) Into a 15 mL polypropylene tube are added the following:
(§7) ^3 H-AA E. coli substrate^1
(§8) Tris-HCl (0.5 M) pH 7.5^3
(§9) PLA2 25 Volume yielding 12%
(§10) 100 hydrolysis in 10 min.
(§11) *pre-incubate at room temperature 30 min prior to substrate addition.
(§12) ^6 Two human PLA2 enzymes are used: a) Semipurified human
(§13) platelet acid extract PLA2 (in 10 mM sodium acetate buffer, pH 4.5).
(§14) Remove protein precipitate by centrifugation at about 2200 rpm for 10
(§15) minutes. b) Purified human synovial fluid.
(§16) Incubate the 100 μL reaction mixture for 10 minutes at 37° C. in a shaking water bath. The reaction is terminated by the addition of 2 mL tetrahydrofuran, followed by vortexing. NH2 columns (100 μg/mL--Analytichem International) are conditioned with 0.5 mL tetrahydrofuran followed by 0.5 mL tetrahydrofuran/water (2 mL:0.1 mL, v/v).
(§17) The sample is loaded onto the columns and slowly drawn through them. The hydrolyzed arachidonic acid retained in the columns is eluted therefrom with 1 mL tetrahydrofuran/glacial acetic acid (2%). The arachidonic acid is transferred to scintillation vials and quantitated by β-counting analysis. A "total counts" sample is prepared by pipetting 25 μL ^3 H-arachidonate E. coli directly into a scintillation vial to which is added 1 mL tetrahydrofuran. 10 mL aquasol (scintillation cocktail) is added to all samples.

human platelet PLA2 = target: T2, human platelet PLA2 (Homo sapiens, UniProt P14555); test: in vitro isolated phospholipase A2 assay, human platelet PLA2; type: biochemical; details: at 10 μM; + values given without explanation; read-out: % Inhibition HP (human platelet)
T2 construct: platelet acid extract PLA2; from tissue; host or cells: human platelets, semipurified acid extract
T2 sequence (P14555 21-144): T1 sequence (P14555 21-144)
Protocol: as §5, §6, §7, §8, §9, §10, §11, §12, §13, §14, §15, §16, §17

[2] = tested on: purified PLA2, from the diamond back cotton mouth snake (A. piscivorus piscivorus); test: in vivo PLA2 murine paw edema assay; design: species or system A. piscivorus piscivorus PLA2 in CD-1 mice; details: p.o.; at +10 min
Protocol: The ability of the compounds of the invention to inhibit paw edema induced by the exogenous administration of PLA2 is measured in the in vivo PLA2 murine paw edema assay.
Non-fasted, male CD-1 mice (8 weeks old; 31-36 grams) are placed in plastic boxes in groups of six. The right hind paw volume is measured using mercury plethysmography (zero time). Compounds are dosed orally (0.5 mL of 0.5% Tween-80) 1 or 3 hours prior to PLA2 injection or intravenously (0.2 mL in 0.3% dimethylsulfoxide/saline) 3 minutes prior to PLA2 injection. A solution of purified PLA2, from the diamond back cotton mouth snake (A. piscivorus piscivorus) is prepared in saline at a concentration of 6 μg/mL. Fifty (50) μL (0.3 μg) of this PLA2 solution is injected subcutaneously into the right hind paw with a plastic 1 mL plastic syringe (27 gauge, 1" needle). Paw volume of the injected paw is measured again at 10 minutes, 30 minutes and 60 minutes after PLA2 injection. Animals are euthanized with CO2 at the completion of the study.
The paw edema is calculated by subtracting the zero time volume from the volume recorded at each time period. Mean paw edema for each treatment group is then calculated and expressed as (μL±S.E.). Drug effects are expressed as a percent change from control (vehicle) values. Statistical significance is determined by a one-way analysis of variance with LSD comparison to control (p<0.05). ED50 's are determined using […].

TPA-induced ear edema = test: 12-o-tetradecanoylphorbol acetate (TPA)-induced murine ear edema assay; type: in vivo, mouse (Swiss Webster); details: TPA; topical, 200 μg, vehicle acetone
Protocol: The ability of the compounds of the invention to inhibit inflammatory responses is examined in the in vivo arachidonic acid (AA)/12-o-tetradecanoylphorbol acetate (TPA)-induced murine ear edema assay.
Swiss Webster female mice (Buckshire), approximately 8 weeks old are placed into plastic boxes in groups of six. Eight groups of mice receive AA topically on the right ear, and another 8 groups receive TPA topically on the right ear. AA and TPA are dissolved in acetone at concentrations of 100 mg/ml and 100 μg/ml respectively. The phlogistics are applied to the right ear by the means of an automatic pipet. Volumes of 10 μl are applied to the inner and outer surfaces of the ear. Each mouse receives either 2 mg/ear AA or 2 μg/ear TPA. The left ear (control) receives acetone delivered in the same manner. Topical and subcutaneous dosing regimens are as follows 1) drugs are given 30 minutes prior to AA treatment and 2) drugs are given 30 minutes after treatment with TPA.
Measurements are taken with Oditest calipers, 0-10 mm with 0.01 graduations. The right and left ears are measured after 1 hr AA-induced inflammation and 4 hours after TPA-induced inflammation.
The difference between right and left ear thickness is calculated and the significance is determined by a one way analysis of variance with Dunnett's comparisons to control (P=0.05). Drug effects are expressed as a percent change from control values: [formula]

[3] = Mus musculus, Peritoneal macrophage, zymosan stimulation
[4] = zymosan stimulation, dose not given
[5] = Mus musculus, Peritoneal macrophage, zymosan stimulation, 0.2 μM

| Compound | inhibition at 0.5 µM (5-lipoxygenase (LTC4); [3]) | inhibition at 0.5 µM (cyclooxygenase (PGE2); [3]) | inhibition at 10 µM [1] | inhibition at 10 µM (human platelet PLA2) | inhibition at 0.1 µM (5-lipoxygenase (LTC4); [3]) | inhibition at 0.1 µM (cyclooxygenase (PGE2); [3]) | other results |
| --- | --- | --- | --- | --- | --- | --- | --- |
| CCCCCCCC[C@@H]1C[C@@H]1CCCCCCCC(=O)C1=C(O)COC1=O (relative stereo) [Example 19, (Z)-4-Hydroxy-3-(1-oxo-8-(2'-octylcyclopropyl)octanyl)-2(5H)-furanone] | 37.5% | 68.4% | 88% | 83% | – | – | – |
| CCCCCCCCCCC[C@@H]1C[C@@H]1CCCCC(=O)C1=C(O)COC1=O (relative stereo) [Example 55] | 64.2% | 74.3% | – | – | 80.3% | 39.2% | – |
| COc1cccc2c1cc([N+](=O)[O-])c1c(C(=O)O)cc3c(c12)OCO3 [Aristolochic Acid, reference compound] | – | – | – | – | – | – | ED50 at +10 min. [2]: Not Active |
| CN1CCC(=C2c3ccccc3C=Cc3ccccc32)CC1 [Cyproheptadine, reference compound] | – | – | – | – | – | – | ED50 at +10 min. [2]: 3.1 mg/kg |
| CCCCCCNC(=O)OCC(CCC(=O)C1=C(O)COC1=O)OC(=O)NCCCCCC (stereo not shown) [Example 30, Hexylcarbamic acid 5-(2,5-dihydro-4-hydroxy-2-oxo-3-furanyl)-5-oxo-1,2-pentanediyl ester] | – | – | 21% | 37.4% | – | – | inhibition at 1 µM (5-lipoxygenase (LTC4); [3]): 41.5%; inhibition at 1 µM (cyclooxygenase (PGE2); [3]): 45.8% |
| CCCCCCCC/C=C\CCCCCCCC(=O)OCCCC(=O)C1=C(O)COC1=O [Example 38, (Z)-9-Octadecanoic acid 4-(2,5-dihydro-4-hydroxy-2-oxo-3-furanyl)-4-oxobutanoic ester] | – | – | 18.8% | 80.9% | – | – | Topical % Inhibition at 200 μg (TPA-induced ear edema): 23%; inhibition at 1 µM (5-lipoxygenase (LTC4); [3]): 46.4%; inhibition at 1 µM (cyclooxygenase (PGE2); [3]): 75.8% |
| CCCCCCCC/C=C\CCCCCCCCNC(=O)OC(CCC(=O)C1=C(O)COC1=O)COC/C=C(\C)CCC=C(C)C (stereo not shown) [Example 40] | – | – | 91% | 96.5% | – | – | IC50 (5-lipoxygenase (LTC4); Mus musculus, Peritoneal macrophage, zymosan stimulation, read-out: LTC4 zymosan IC50): 0.8 µM; LTC4 zymosan % Inhibition (5-lipoxygenase (LTC4); [4]): 87%; IC50 (cyclooxygenase (PGE2); Mus musculus, Peritoneal macrophage, zymosan stimulation, read-out: PGE2 zymosan IC50): 0.8 µM; PGE2 zymosan % Inhibition (cyclooxygenase (PGE2); [4]): 37% |
| O=C(CCCCCCCCCc1ccc(Cl)cc1)C1=C(O)COC1=O [Example 41, 4-Hydroxy-3-[10-(4-chlorophenyl)-1-oxodecyl]-2(5H)-furanone] | 90% | 97% | 13% | 12% | 61% | 29% | – |
| O=C(CCCCCCCCCc1ccc(Cl)c(Cl)c1)C1=C(O)COC1=O [Example 42, 4-Hydroxy-3-[10-(3,4-dichlorophenyl)-1-oxodecyl]-2(5H)-furanone] | 70% | 97% | 22% | 6.6% | 58% | -8% | – |
| CC(C)(C)c1ccc(CCCCCCCCCC(=O)C2=C(O)COC2=O)cc1 [Example 43, 4-Hydroxy-3-[10-[4-(1,1-dimethylethyl)phenyl]1-oxodecyl]-2(5H)-furanone] | 96% | 92% | 44.4% | 29.7% | 71% | 54% | – |
| O=C(CCCCCCCCCc1ccc(Br)cc1)C1=C(O)COC1=O [Example 44, 4-Hydroxy-3-[10-(4-bromophenyl)-1-oxodecyl]-2(5H)-furanone] | 94% | 88% | 37% | 16.1% | 58% | -20% | – |
| O=C(CCCCCCCCCc1ccc(C(F)(F)F)cc1)C1=C(O)COC1=O [Example 45, 4-Hydroxy-3[10-(4-trifluoromethyl)phenyl]-2(5H)-furanone] | – | – | 55.6% | 63% | – | – | inhibition at 0.2 µM (5-lipoxygenase (LTC4); [5]): 34.5%; inhibition at 0.2 µM (cyclooxygenase (PGE2); [5]): 45% |
| O=C(CCCCOc1ccc(Cl)cc1)C1=C(O)CSC1=O [Example 49, 4-Hydroxy-3-[5-(4-chlorophenoxy)-1-oxopentyl]-2(5H)-thiophenone] | -19.7% | -11.8% | 6.7% | 1.7% | – | – | – |
| CC(Cc1ccc(O)c(O)c1)C(C)Cc1ccc(O)c(O)c1 (stereo not shown) [NDGA, reference compound] | – | – | – | – | – | – | IC50 (5-lipoxygenase (LTC4); Mus musculus, Peritoneal macrophage, reference compounds, 95% confidence limits on next line, read-out: IC50 LTC4): […]; IC50 (cyclooxygenase (PGE2); Mus musculus, Peritoneal macrophage, reference compounds, 95% confidence limits on next line, read-out: IC50 PGE2): 2.15 µM |
| COc1ccc2cc([C@H](C)C(=O)O)ccc2c1 [Naproxen, reference compound] | – | – | – | – | – | – | ED50 at +10 min. [2]: 18 mg/kg |
| Luffarrellolide [reference compound] | – | – | – | – | – | – | ED50 at +10 min. [2]: Not Active |
